Experimental data published in patent US7326722B2, “N-[Phenyl(piperidin-2-yl)methyl]benzamide derivatives, their preparation and their application in therapy” (Sanofi-Aventis, priority 2002, dated 2008).
Where a name gives a salt, the structure may show the parent alone.

Row | melting point [°C] | Compound
1 | 100 to 102 | C[N+]1([O-])CCCCC1C(NC(=O)c1cccc(C(F)(F)F)c1Cl)c1ccccc1 (centres unmarked) (as salt: HCl) [Compound No. 70]
2 | 126 to 128 | C[N+]1([O-])CCCCC1C(NC(=O)c1cccc(C(F)(F)F)c1Cl)c1ccccc1 (centres unmarked) (as salt: HCl) [Compound No. 69]
